{
  "source": "patent US4774078A",
  "about": "“Stable antiplaque dentifrice based on hexetidine, zinc ion and fluoride” (Colgate-Palmolive Company, priority 1986, dated 1988)",
  "key": {"[1]": {"experiment": "Active ingredient stability of dentifrice after aging 9 weeks at 49° C.", "from_the_text": "The pH of the dentifrice can be adjusted to 5-6 with an appropriate acid such as acetic acid, citric acid, hydrochloric acid, phosphoric acid, etc., if necessary."}, "[2]": {"conditions": "cited from earlier work"}, "Strep mutans": {"tested_on": "Strep mutans", "experiment": "MIC (minimum inhibitory concentration) with Strep. mutans", "type": "cell-based", "conditions": "active ingredient alone, water/alcohol/propylene glycol mixture, total bacterial inhibition", "text": "Hexetidine is a broad-spectrum, water-insoluble antibacterial, having the chemical formula [drawing 1] 5-amino-1,3-bis(2 ethylhexyl)-5-methyl-hexahydropyrimidine. It has been used as an antibacterial agent in antiplaque and antigingivitis oral compositions as previously discussed. However, hexetidine is a bitter-tasting chemical, thereby limiting its use to low levels in order to minimize its bitter taste, which in turn limits its therapeutic activity.\nTable I gives the MIC (minimum inhibitory concentration) results with Strep. mutans.\nAll the active ingredients (AI) are in water/alcohol/propylene glycol mixtures.\nThe FIC (Fractional Inhibitory Concentration), has been calculated from the MIC data for each ratio.\nA minimum concentration of 0.60 ppm hexetidine alone is needed for total bacterial inhibition, and a minimum concentration of 40 ppm of zinc++ alone is required for total bacterial inhibition; whereas a concentration of 0.12 ppm hexetidine in combination with 0.12 ppm zinc++ effects total bacterial inhibition. This increase in the antibacterial activity of the hexetidine due to the presence of the zinc++ reduces the amount necessary to produce a therapeutic effect, and this minimizes the bitter taste associated with hexetidine."}},
  "note": "Where two headings read alike, the source gives them in different places.",
  "data": [
    {"compound": "CCCCC(CC)CN1CN(CC(CC)CCCC)CC(C)(N)C1", "note": "(stereo not shown) [Hexetidine, 5-amino-1,3-bis(2 ethylhexyl)-5-methyl-hexahydropyrimidine]", "values": [
      {"measurement": "% Available After Aging", "setting": "[1]; in dentifrices of Examples 1 and 2 (sodium lauryl sulfate), pH 5-6, 90720 min", "result": 65, "unit": "%"},
      {"measurement": "% Available After Aging", "setting": "[1]; in dentifrices of Examples 3 and 4 (polyoxyethylene (20) sorbitan monoisostearate), pH 5.0-6.0, 90720 min", "result": 92, "unit": "%"},
      {"measurement": "water solubility", "setting": "[2]", "result": "water-insoluble"},
      {"measurement": "MIC", "setting": "Strep mutans; Streptococcus mutans, read-out: MIC", "result": 0.6, "unit": "µg/mL"},
      {"measurement": "MIC", "setting": "Strep mutans", "result": 0.60, "unit": "ppm"}
    ]},
    {"compound": "Zinc++", "values": [
      {"measurement": "MIC", "setting": "Strep mutans", "result": 40.00, "unit": "ppm"},
      {"measurement": "MIC", "setting": "Strep mutans; listed as zinc++", "result": 40, "unit": "ppm"}
    ]}
  ]
}
